From ChEMBL document CHEMBL1128422 (J Med Chem, 1995)

species: Oryctolagus cuniculus; experiment: Ability to stimulate contraction of the rabbit iris sphincter smooth muscle using smooth muscle contraction assay; type: functional; settings: Muscle tissue

| SMILES | EC50 [nM] |
| --- | --- |
| CSCC[C@H](NC(=O)[C@H](CC(C)C)NC(=O)CNC(=O)[C@@H](NC(=O)[C@@H](NC(=O)[C@H](CCC(N)=O)NC(=O)[C@H](CCC(N)=O)NC(=O)[C@@H]1CCCN1C(=O)[C@H](CCCCN)NC(=O)[C@@H]1CCCN1C(=O)[C@@H](N)CCCN=C(N)N)[C@H](C)c1ccccc1)[C@@H](C)c1ccccc1)C(N)=O | 0.28 |
| CSCC[C@H](NC(=O)[C@H](CC(C)C)NC(=O)CNC(=O)[C@@H](NC(=O)[C@@H](NC(=O)[C@H](CCC(N)=O)NC(=O)[C@H](CCC(N)=O)NC(=O)[C@@H]1CCCN1C(=O)[C@H](CCCCN)NC(=O)[C@@H]1CCCN1C(=O)[C@@H](N)CCCN=C(N)N)[C@@H](C)c1ccccc1)[C@H](C)c1ccccc1)C(N)=O | 0.58 |
| CSCC[C@H](NC(=O)[C@H](CC(C)C)NC(=O)CNC(=O)[C@H](Cc1ccccc1)NC(=O)[C@@H](NC(=O)[C@H](CCC(N)=O)NC(=O)[C@H](CCC(N)=O)NC(=O)[C@@H]1CCCN1C(=O)[C@H](CCCCN)NC(=O)[C@@H]1CCCN1C(=O)[C@@H](N)CCCN=C(N)N)[C@@H](C)c1ccccc1)C(N)=O | 0.59 |
| CSCC[C@H](NC(=O)[C@H](CC(C)C)NC(=O)CNC(=O)[C@@H](NC(=O)[C@H](Cc1ccccc1)NC(=O)[C@H](CCC(N)=O)NC(=O)[C@H](CCC(N)=O)NC(=O)[C@@H]1CCCN1C(=O)[C@H](CCCCN)NC(=O)[C@@H]1CCCN1C(=O)[C@@H](N)CCCN=C(N)N)[C@H](C)c1ccccc1)C(N)=O | 5.76 |
| CSCC[C@H](NC(=O)[C@H](CC(C)C)NC(=O)CNC(=O)[C@H](Cc1ccccc1)NC(=O)[C@@H](NC(=O)[C@H](CCC(N)=O)NC(=O)[C@H](CCC(N)=O)NC(=O)[C@@H]1CCCN1C(=O)[C@H](CCCCN)NC(=O)[C@@H]1CCCN1C(=O)[C@@H](N)CCCN=C(N)N)[C@H](C)c1ccccc1)C(N)=O | 0.54 |
| CSCC[C@H](NC(=O)[C@H](CC(C)C)NC(=O)CNC(=O)[C@@H](NC(=O)[C@@H](NC(=O)[C@H](CCC(N)=O)NC(=O)[C@H](CCC(N)=O)NC(=O)[C@@H]1CCCN1C(=O)[C@H](CCCCN)NC(=O)[C@@H]1CCCN1C(=O)[C@@H](N)CCCN=C(N)N)[C@H](C)c1ccccc1)[C@H](C)c1ccccc1)C(N)=O | 10 |
| CSCC[C@H](NC(=O)[C@H](CC(C)C)NC(=O)CNC(=O)[C@@H](NC(=O)[C@@H](NC(=O)[C@H](CCC(N)=O)NC(=O)[C@H](CCC(N)=O)NC(=O)[C@@H]1CCCN1C(=O)[C@H](CCCCN)NC(=O)[C@@H]1CCCN1C(=O)[C@@H](N)CCCN=C(N)N)[C@@H](C)c1ccccc1)[C@@H](C)c1ccccc1)C(N)=O | 0.18 |
| CSCC[C@H](NC(=O)[C@H](CC(C)C)NC(=O)CNC(=O)[C@@H](NC(=O)[C@H](Cc1ccccc1)NC(=O)[C@H](CCC(N)=O)NC(=O)[C@H](CCC(N)=O)NC(=O)[C@@H]1CCCN1C(=O)[C@H](CCCCN)NC(=O)[C@@H]1CCCN1C(=O)[C@@H](N)CCCN=C(N)N)[C@@H](C)c1ccccc1)C(N)=O | 0.13 |
